Data as given in PubChem BioAssay (NCI).
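These data come from cells grown in 96-well plates and exposed to compound for 48 hours at five concentrations. GI50 marks 50% less growth. TGI: total growth inhibition.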

Legend:
Assay in all cases: growth of human tumour cells (NCI), 48 h
[1] = tested on: OVCAR-3 ovarian
[2] = tested on: MOLT-4 leukemia
[3] = tested on: MDA-MB-435
[4] = tested on: MALME-3M melanoma
[5] = tested on: IGROV1 ovarian
[6] = tested on: HCC-2998 colon
[7] = tested on: UACC-257 melanoma
[8] = tested on: COLO 205 colon
[9] = tested on: BT-549 breast
[10] = tested on: U251 CNS
[11] = tested on: SK-OV-3 ovarian
[12] = tested on: RXF 393 renal
[13] = tested on: ACHN renal
[14] = tested on: NCI/ADR-RES ovarian
[15] = tested on: EKVX NSCLC
[16] = tested on: TK-10 renal
[17] = tested on: PC-3 prostate
[18] = tested on: HL-60(TB) leukemia
[19] = tested on: HCT-116 colon
[20] = tested on: HS 578T breast
[21] = tested on: A549 NSCLC
[22] = tested on: DU-145 prostate
[23] = tested on: 786-0 renal
[24] = tested on: HCT-15 colon
[25] = tested on: RPMI-8226 leukemia
[26] = tested on: K-562 leukemia
[27] = tested on: SF-539 CNS
[28] = tested on: SW-620 colon
[29] = tested on: SF-295 CNS
[30] = tested on: SR leukemia
[31] = tested on: NCI-H522 lung
[32] = tested on: SF-268 CNS
[33] = tested on: SN12C renal
[34] = tested on: SK-MEL-5 melanoma
[35] = tested on: KM12 colon
[36] = tested on: HOP-92 NSCLC
[37] = tested on: SK-MEL-28 melanoma
[38] = tested on: UO-31 renal
[39] = tested on: CAKI-1 renal
[40] = tested on: NCI-H226 lung
[41] = tested on: M14 melanoma
[42] = tested on: SNB-19 CNS
[43] = tested on: SNB-75 CNS
[44] = tested on: OVCAR-5 ovarian
[45] = tested on: T-47D breast
[46] = tested on: SK-MEL-2 melanoma
[47] = tested on: MDA-MB-231 breast
[48] = tested on: LOX IMVI melanoma
[49] = tested on: NCI-H23 lung
[50] = tested on: NCI-H460 lung
[51] = tested on: MDA-MB-468 breast
[52] = tested on: CCRF-CEM leukemia
[53] = tested on: OVCAR-8 ovarian
[54] = tested on: OVCAR-4 ovarian
[55] = tested on: HOP-62 NSCLC
[56] = tested on: A498 renal
[57] = tested on: MCF7 breast
[58] = tested on: UACC-62 melanoma

## O=C(COc1ccc(NC(=O)Nc2ccccc2)cc1)N=Nc1c(O)[nH]c2ccc([N+](=O)[O-])cc12
[1]
  GI50: 1.66 µM
  TGI: 3.18 µM
[2]
  GI50: 2.37 µM
  TGI: 5.08 µM
[3]
  GI50: 1.71 µM
  TGI: 3.26 µM
[4]
  GI50: 1.63 µM
  TGI: 3.07 µM
[5]
  GI50: 3.43 µM
  TGI: 15.5 µM
[6]
  GI50: 2.24 µM
  TGI: 5.15 µM
[7]
  GI50: 2.01 µM
  TGI: 4.91 µM
[8]
  GI50: 1.94 µM
  TGI: 3.55 µM
[9]
  GI50: 1.89 µM
  TGI: 5.37 µM
[10]
  GI50: 1.71 µM
  TGI: 3.12 µM
[11]
  GI50: 5.45 µM
  TGI: 21 µM
[12]
  GI50: 2.31 µM
  TGI: 6.01 µM
[13]
  GI50: 29.3 µM
  TGI: > 100 µM
[14]
  GI50: > 100 µM
  TGI: > 100 µM
[15]
  GI50: 5.02 µM
  TGI: 45.7 µM
[16]
  GI50: 17.3 µM
  TGI: 38.4 µM
[17]
  GI50: 2.05 µM
  TGI: 4.76 µM
[18]
  GI50: 8.08 µM
  TGI: > 100 µM
[19]
  GI50: 1.72 µM
  TGI: 3.13 µM
[20]
  GI50: 2.09 µM
  TGI: 5.8 µM
[21]
  GI50: > 100 µM
  TGI: > 100 µM
[22]
  GI50: 3.88 µM
  TGI: > 100 µM
[23]
  GI50: 5.69 µM
  TGI: 23.8 µM
[24]
  GI50: 99.8 µM
  TGI: > 100 µM
[25]
  GI50: 5.39 µM
  TGI: > 100 µM
[26]
  GI50: 3.02 µM
  TGI: 7.65 µM
[27]
  GI50: 1.67 µM
  TGI: 3.14 µM
[28]
  GI50: 1.69 µM
  TGI: 3.83 µM
[29]
  GI50: 6.27 µM
  TGI: 32.8 µM
[30]
  GI50: 2.65 µM
  TGI: 6.32 µM
[31]
  GI50: 1.61 µM
  TGI: 3.15 µM
[32]
  GI50: 1.91 µM
  TGI: 4.08 µM
[33]
  GI50: 1.65 µM
  TGI: 3.3 µM
[34]
  GI50: 2.15 µM
  TGI: 5.09 µM
[35]
  GI50: 1.95 µM
  TGI: 3.96 µM
[36]
  GI50: 1.76 µM
  TGI: 3.39 µM
[37]
  GI50: 1.79 µM
  TGI: 3.65 µM
[38]
  GI50: > 100 µM
  TGI: > 100 µM
[39]
  GI50: 47.7 µM
  TGI: > 100 µM
[40]
  GI50: 2.31 µM
  TGI: 5.94 µM
[41]
  GI50: 2.86 µM
  TGI: 11.3 µM
[42]
  GI50: 1.98 µM
  TGI: 4.55 µM
[43]
  GI50: 1.46 µM
  TGI: 3.39 µM
[44]
  GI50: 4.11 µM
  TGI: > 100 µM
[45]
  GI50: 1.71 µM
  TGI: 3.6 µM
[46]
  GI50: 1.76 µM
  TGI: 3.46 µM
[47]
  GI50: 1.82 µM
  TGI: 3.41 µM
[48]
  GI50: 1.7 µM
  TGI: 3.15 µM
[49]
  GI50: 2.09 µM
  TGI: 4.27 µM
[50]
  GI50: 1.89 µM
  TGI: 4.58 µM
[51]
  GI50: 1.85 µM
  TGI: 3.31 µM
[52]
  GI50: 2.45 µM
  TGI: 6.17 µM
[53]
  GI50: 1.89 µM
  TGI: 3.75 µM
[54]
  GI50: 1.84 µM
  TGI: 3.96 µM
[55]
  GI50: 2.42 µM
  TGI: 7.08 µM
[56]
  GI50: 11.4 µM
  TGI: 32.5 µM
[57]
  GI50: 1.94 µM
  TGI: 4.02 µM
[58]
  GI50: 1.83 µM
  TGI: 3.92 µM
